Experimental data published in US20190076431A1, “SRC INHIBITOR TO BLOCK CELL SURFACE GRP78 EXPRESSION” (University of Southern California, priority 2016, published 2019).

Legend:
[1] = tested on: cell surface GRP78; assay: Biotinylated cell surface protein levels after DAS treatment of H929 MM cells (Western blot); type: cell-based; settings: DAS 1 μM for the indicated time, biotinylated cell surface proteins
Procedure: Cell Surface Protein Biotinylation and Avidin Pull-down—Following treatment, the cells were washed with cold PBS 3 times. EZ-Link Sulfo-NHS-SS-Biotin (Thermo Scientific, Waltham, Mass.) in PBS at 0.5 mg/ml was added and the cells were gently shaken at 4° C. for 30 min. To stop the biotinylation reaction, the biotin solution was removed, and the cells were rinsed three times with the quenching buffer containing Tris-Cl pH 7.4 in cold PBS. Then cells were rinsed with cold PBS and subjected to either sodium carbonate extraction (see below) or radioimmune precipitation (RIPA) lysis. The RIPA lysis buffer was supplemented with protease and phosphatase inhibitor cocktail (Thermo Scientific). Protein concentrations were determined by Bradford assay (Bio-Rad Lab, Hercules, Calif.). Part of the lysate was saved as whole cell lysate for Western blots to measure the total level of the target proteins. To purify the surface proteins, the remaining lysates were mixed with High Capacity NeutrAvidin Agarose Resin (Thermo Scientific) at room temperature for 1 h, and the resin was washed by RIPA buffer and centrifuged at 3,000× g for 1 min ten times. […]
Immunoblot Analysis—Protein samples were subjected to 10% or 15% SDS-PAGE and Western blot analysis as previously described (9). […] Protein levels were visualized and quantitated by ChemiDoc™ XRS+ Imager (Bio-Rad Lab) or LI-COR Odyssey (LI-COR Biosciences).

[2] = tested on: csGRP78; assay: csGRP78 by flow cytometry in CD138+ MM cells from the bone marrow of a MM patient; type: cell-based, human; settings: DAS 0.3 μM for 24 hr
Procedure: FIG. 11. […] (A) Peripheral blood mononuclear cells were isolated from the bone marrow of a MM patient and sorted into CD138+ (blue) and CD138− (non-malignant) cells (orange) and csGRP78 was measured by flow cytometry, with RPMI-8226 MM cell line (red) analyzed in parallel. (B) CD138+ MM cells were treated with DAS (0.3 μM) for 24 hr and assayed for csGRP78 by flow cytometry.

[3] = Enhancement of proteasome based therapy (summary statement)

Cc1nc(Nc2ncc(C(=O)Nc3c(C)cccc3Cl)s2)cc(N2CCN(CCO)CC2)n1 [Dasatinib, dasatinib]
cell surface GRP78 expression [1]: Suppresses Cell Surface GRP78
csGRP78 by flow cytometry [2]: Suppresses Cell Surface GRP78
effect on proteasome based therapy [3]: enhance proteasome based therapy
